{"source": "Sander's compilation of Henry's law constants", "key": {"[1]": {"test": "Henry solubility constant Hcp at 303 K (mol/(m3 Pa))"}, "[2]": {"test": "Henry solubility constant Hcp at 298.15 K (mol/(m3 Pa))"}, "[3]": {"test": "Henry solubility constant Hcp at 295 K (mol/(m3 Pa))"}, "[4]": {"test": "Henry solubility constant Hcp at 296 K (mol/(m3 Pa))"}, "[5]": {"test": "Henry solubility constant Hcp at 310 K (mol/(m3 Pa))"}, "[6]": {"test": "Henry solubility constant Hcp at 293 K (mol/(m3 Pa))"}, "[7]": {"conditions": "reference: Meynier et al. (2003)"}, "[8]": {"conditions": "reference: Kieckbusch and King (1979b)"}, "[9]": {"conditions": "reference: McIntosh and Heffron (2000)"}, "[10]": {"conditions": "reference: Hartkopf and Karger (1973)"}, "[11]": {"conditions": "reference: Warner et al. (1980)"}, "[12]": {"conditions": "reference: Yurteri et al. (1987)"}, "[13]": {"conditions": "reference: Bissonette et al. (1990)"}, "[14]": {"conditions": "reference: de Wolf and Lieder (1998)"}, "[15]": {"conditions": "reference: Richon et al. (1985)"}}, "data": [{"smiles": "CCCCCOC(C)=O", "note": "[pentyl ethanoate]", "values": [{"measurement": "Henry solubility constant Hcp at 303 K", "setting": "[1]; [7]", "value": 0.13}, {"measurement": "Henry solubility constant Hcp", "setting": "[2]; [8]", "value": 0.028}]}, {"smiles": "[CH3][Hg][Cl]", "note": "[chloromethylmercury]", "values": [{"measurement": "Henry solubility constant Hcp", "setting": "[2]; reference: Iverfeldt and Lindqvist (1982)", "value": 22}, {"measurement": "Henry solubility constant Hcp at 295 K", "setting": "[3]; reference: Talmi and Mesmer (1975)", "value": 15}]}, {"smiles": "ClCCl", "note": "[dichloromethane]", "values": [{"measurement": "Henry solubility constant Hcp at 296 K", "setting": "[4]; reference: David et al. (2000)", "value": 0.0039}, {"measurement": "Henry solubility constant Hcp at 310 K", "setting": "[5]; [9]", "value": 0.0034}, {"measurement": "Henry solubility constant Hcp", "setting": "[2]; reference: Chen et al. (2012)", "value": 0.0035}, {"measurement": "Henry solubility constant Hcp", "setting": "[2]; reference: Gossett (1987)", "value": 0.0046}, {"measurement": "Henry solubility constant Hcp", "setting": "[2]; reference: Gossett et al. (1985)", "value": 0.0038}, {"measurement": "Henry solubility constant Hcp", "setting": "[2]; [10]", "value": 0.0042}, {"measurement": "Henry solubility constant Hcp", "setting": "[2]; reference: Lincoff and Gossett (1984)", "value": 0.0034}, {"measurement": "Henry solubility constant Hcp", "setting": "[2]; reference: Lutsyk et al. (2005)", "value": 0.0043}, {"measurement": "Henry solubility constant Hcp", "setting": "[2]; reference: Park et al. (1997)", "value": 0.0043}, {"measurement": "Henry solubility constant Hcp", "setting": "[2]; [11]", "value": 0.0031}, {"measurement": "Henry solubility constant Hcp at 293 K", "setting": "[6]; reference: Chiang et al. (1998)", "value": 0.0034}, {"measurement": "Henry solubility constant Hcp at 293 K", "setting": "[6]; reference: Pearson and McConnell (1975)", "value": 0.0033}, {"measurement": "Henry solubility constant Hcp at 293 K", "setting": "[6]; reference: Yu (1992)", "value": 0.0044}, {"measurement": "Henry solubility constant Hcp at 293 K", "setting": "[6]; [12]", "value": 0.0052}]}, {"smiles": "Cc1ccccc1C", "note": "[1,2-dimethylbenzene]", "values": [{"measurement": "Henry solubility constant Hcp at 296 K", "setting": "[4]; reference: Anderson (1992)", "value": 0.0017}, {"measurement": "Henry solubility constant Hcp at 310 K", "setting": "[5]; [9]", "value": 0.00096}, {"measurement": "Henry solubility constant Hcp", "setting": "[2]; [13]", "value": 0.0021}, {"measurement": "Henry solubility constant Hcp", "setting": "[2]; reference: Li et al. (2008)", "value": 0.0023}, {"measurement": "Henry solubility constant Hcp", "setting": "[2]; reference: Robbins et al. (1993)", "value": 0.002}, {"measurement": "Henry solubility constant Hcp", "setting": "[2]; reference: Sieg et al. (2009)", "value": 0.002}, {"measurement": "Henry solubility constant Hcp", "setting": "[2]; reference: Turner et al. (1996)", "value": 0.0014}, {"measurement": "Henry solubility constant Hcp", "setting": "[2]; reference: Wasik and Tsang (1970)", "value": 0.0029}, {"measurement": "Henry solubility constant Hcp at 293 K", "setting": "[6]; [12]", "value": 0.0023}]}, {"smiles": "CC(=O)OCCC(C)C", "note": "[3-methylbutyl ethanoate]", "values": [{"measurement": "Henry solubility constant Hcp at 303 K", "setting": "[1]; [7]", "value": 0.088}, {"measurement": "Henry solubility constant Hcp", "setting": "[2]; reference: Ammari and Schroen (2019)", "value": 0.022}]}, {"smiles": "Brc1ccccc1", "note": "[bromobenzene]", "values": [{"measurement": "Henry solubility constant Hcp", "setting": "[2]; reference: Lau et al. (2010)", "value": 0.0039}, {"measurement": "Henry solubility constant Hcp at 295 K", "setting": "[3]; [14]", "value": 0.005}]}, {"smiles": "CCC/C=C/C=O", "note": "[(E)-2-hexenal]", "values": [{"measurement": "Henry solubility constant Hcp at 303 K", "setting": "[1]; [7]", "value": 0.9}, {"measurement": "Henry solubility constant Hcp", "setting": "[2]; reference: Buttery et al. (1971)", "value": 0.2}]}, {"smiles": "Clc1ccccc1", "note": "[chlorobenzene]", "values": [{"measurement": "Henry solubility constant Hcp", "setting": "[2]; [13]", "value": 0.0024}, {"measurement": "Henry solubility constant Hcp", "setting": "[2]; reference: Cooling et al. (1992)", "value": 0.003}, {"measurement": "Henry solubility constant Hcp", "setting": "[2]; reference: Ervin et al. (1980)", "value": 0.0029}, {"measurement": "Henry solubility constant Hcp", "setting": "[2]; reference: Ettre et al. (1993)", "value": 0.0031}, {"measurement": "Henry solubility constant Hcp", "setting": "[2]; [10]", "value": 0.0028}, {"measurement": "Henry solubility constant Hcp", "setting": "[2]; reference: Khalfaoui and Newsham (1994b)", "value": 0.003}, {"measurement": "Henry solubility constant Hcp", "setting": "[2]; reference: Lau et al. (2010)", "value": 0.0017}, {"measurement": "Henry solubility constant Hcp", "setting": "[2]; reference: Lei et al. (2004)", "value": 0.0015}, {"measurement": "Henry solubility constant Hcp", "setting": "[2]; reference: Li et al. (2008)", "value": 0.0024}, {"measurement": "Henry solubility constant Hcp", "setting": "[2]; reference: Mackay et al. (1979)", "value": 0.0026}, {"measurement": "Henry solubility constant Hcp", "setting": "[2]; reference: Park et al. (1997)", "value": 0.0019}, {"measurement": "Henry solubility constant Hcp", "setting": "[2]; reference: Ramachandran et al. (1996)", "value": 0.0029}, {"measurement": "Henry solubility constant Hcp", "setting": "[2]; [11]", "value": 0.0025}, {"measurement": "Henry solubility constant Hcp at 295 K", "setting": "[3]; [14]", "value": 0.0034}, {"measurement": "Henry solubility constant Hcp at 293 K", "setting": "[6]; [12]", "value": 0.0031}]}, {"smiles": "CCCOC(C)=O", "note": "[propyl ethanoate]", "values": [{"measurement": "Henry solubility constant Hcp at 303 K", "setting": "[1]; [15]", "value": 0.031}, {"measurement": "Henry solubility constant Hcp", "setting": "[2]; reference: Fenclová et al. (2014)", "value": 0.045}, {"measurement": "Henry solubility constant Hcp", "setting": "[2]; [8]", "value": 0.045}]}, {"smiles": "[N-]=[N+]=O", "note": "[dinitrogen monoxide]", "values": [{"measurement": "Henry solubility constant Hcp at 296 K", "setting": "[4]; reference: Nunn (1958)", "value": 0.00022}, {"measurement": "Henry solubility constant Hcp at 310 K", "setting": "[5]; reference: Bachofen and Farhi (1971)", "value": 0.00019}, {"measurement": "Henry solubility constant Hcp at 310 K", "setting": "[5]; reference: Sy and Hasbrouck (1964)", "value": 0.00014}, {"measurement": "Henry solubility constant Hcp", "setting": "[2]; reference: Carius (1855)", "value": 0.00025}, {"measurement": "Henry solubility constant Hcp", "setting": "[2]; reference: Gabel and Schultz (1973)", "value": 0.00025}, {"measurement": "Henry solubility constant Hcp", "setting": "[2]; reference: Geffcken (1904)", "value": 0.00024}, {"measurement": "Henry solubility constant Hcp", "setting": "[2]; reference: Joosten and Danckwerts (1972)", "value": 0.00024}, {"measurement": "Henry solubility constant Hcp", "setting": "[2]; reference: Kunerth (1922)", "value": 0.00024}, {"measurement": "Henry solubility constant Hcp", "setting": "[2]; reference: Orcutt and Seevers (1937a)", "value": 0.00024}, {"measurement": "Henry solubility constant Hcp", "setting": "[2]; reference: Roth (1897)", "value": 0.00023}, {"measurement": "Henry solubility constant Hcp", "setting": "[2]; reference: Saidman et al. (1966)", "value": 0.00024}, {"measurement": "Henry solubility constant Hcp", "setting": "[2]; reference: Siebeck (1909)", "value": 0.00024}, {"measurement": "Henry solubility constant Hcp", "setting": "[2]; reference: Weiss and Price (1980)", "value": 0.00024}]}, {"smiles": "CCCCC(CC)COC(=O)CCCCC(=O)OCC(CC)CCCC", "note": "(centres undefined) [di-(2-ethylhexyl)-adipate]", "values": [{"measurement": "Henry solubility constant Hcp at 295 K", "setting": "[3]; reference: Felder et al. (1986)", "value": 23}]}, {"smiles": "CC[N+](=O)[O-]", "note": "[nitroethane]", "values": [{"measurement": "Henry solubility constant Hcp at 303 K", "setting": "[1]; reference: Friant and Suffet (1979)", "value": 0.14}, {"measurement": "Henry solubility constant Hcp", "setting": "[2]; reference: Beneš and Dohnal (1999)", "value": 0.22}]}, {"smiles": "[HH]", "note": "[hydrogen]", "values": [{"measurement": "Henry solubility constant Hcp at 303 K", "setting": "[1]; reference: Ruetschi and Amlie (1966)", "value": "7.5e-06"}, {"measurement": "Henry solubility constant Hcp at 310 K", "setting": "[5]; reference: Longo et al. (1970)", "value": "7.2e-06"}, {"measurement": "Henry solubility constant Hcp at 310 K", "setting": "[5]; reference: Power and Stegall (1970)", "value": "7.2e-06"}, {"measurement": "Henry solubility constant Hcp", "setting": "[2]; reference: Bohr and Bock (1891)", "value": "7.5e-06"}, {"measurement": "Henry solubility constant Hcp", "setting": "[2]; reference: Braun (1900)", "value": "7.7e-06"}, {"measurement": "Henry solubility constant Hcp", "setting": "[2]; reference: Bunsen (1855a)", "value": "8.5e-06"}, {"measurement": "Henry solubility constant Hcp", "setting": "[2]; reference: Crozier and Yamamoto (1974)", "value": "7.7e-06"}, {"measurement": "Henry solubility constant Hcp", "setting": "[2]; reference: Geffcken (1904)", "value": "7.8e-06"}, {"measurement": "Henry solubility constant Hcp", "setting": "[2]; reference: Gordon et al. (1977)", "value": "7.7e-06"}, {"measurement": "Henry solubility constant Hcp", "setting": "[2]; reference: Morrison and Billett (1952)", "value": "7.8e-06"}, {"measurement": "Henry solubility constant Hcp", "setting": "[2]; reference: Schmidt (1979)", "value": "7.8e-06"}, {"measurement": "Henry solubility constant Hcp", "setting": "[2]; reference: Timofejew (1890)", "value": "7.8e-06"}, {"measurement": "Henry solubility constant Hcp", "setting": "[2]; reference: Winkler (1891a)", "value": "7.7e-06"}]}, {"smiles": "CCOC=O", "note": "[ethyl methanoate]", "values": [{"measurement": "Henry solubility constant Hcp at 303 K", "setting": "[1]; [15]", "value": 0.023}, {"measurement": "Henry solubility constant Hcp", "setting": "[2]; [10]", "value": 0.0019}, {"measurement": "Henry solubility constant Hcp", "setting": "[2]; reference: Kutsuna et al. (2005)", "value": 0.034}, {"measurement": "Henry solubility constant Hcp", "setting": "[2]; reference: Wittig et al. (2001)", "value": 0.04}]}]}
